Data as given in patent US20120164226A1, “Compositions and Methods for Improving Prognosis of a Human with Subarachnoid Hemorrhage” (priority 2007, published 2012).

Key:
[1] = system: Subarachnoid Hemorrhage (SAH) Dog Model; test: Study 2: angiographic vasospasm (basilar artery diameter) in SAH dog model; type: in vivo; details: oral nimodipine 0.86 mg/kg six times per day till day 21
Method: The mixture was added to a surfactant containing aqueous solution to form an emulsion and the solvent extracted to produce the flowable microparticulate nimodipine formulation. […] The microparticulate nimodipine formulation is combined with a pharmaceutical carrier to form the pharmaceutical composition of the described invention. […] The placebo formulation contained the microparticles plus vehicle, but no nimodipine. […] (Data not shown). […] On Day 1, the dogs were weighed, baseline blood was collected and blood pressure, temperature, heart rate oxygen, and blood gases were monitored throughout the surgical procedure. Cerebral angiography was performed through one vertebral artery. Images were captured using identical exposure factors and magnification for every angiogram. An internal magnification standard was included in every angiogram. […] The needle was withdrawn immediately after the injection. […] The animal was then turned supine, the femoral catheter was removed, and the femoral artery was ligated. The incision was closed in a standard fashion. […] The angiographic data was independently analyzed by two reviewers who were blinded to the animal group. […] Individual percent vasospasm was determined for each animal for Days 8 and 15 using formula (I): Average percent vasospasm for Days 8 and 15 was also determined for each group. […]

Na^+ currents = details: cited from earlier work
[2] = target: P/Q-type calcium currents (Homo sapiens, UniProt O00555); details: cited from earlier work
[3] = target: T1, R-type calcium current in the neurohypophysial nerve endings (Homo sapiens, UniProt Q15878); details: 40 nM concentration; cited from earlier work
T1 construct: R-type calcium current in the neurohypophysial nerve endings at 40 nM concentration; host or cells: neurohypophysial nerve endings
T1 sequence (Q15878 whole entry): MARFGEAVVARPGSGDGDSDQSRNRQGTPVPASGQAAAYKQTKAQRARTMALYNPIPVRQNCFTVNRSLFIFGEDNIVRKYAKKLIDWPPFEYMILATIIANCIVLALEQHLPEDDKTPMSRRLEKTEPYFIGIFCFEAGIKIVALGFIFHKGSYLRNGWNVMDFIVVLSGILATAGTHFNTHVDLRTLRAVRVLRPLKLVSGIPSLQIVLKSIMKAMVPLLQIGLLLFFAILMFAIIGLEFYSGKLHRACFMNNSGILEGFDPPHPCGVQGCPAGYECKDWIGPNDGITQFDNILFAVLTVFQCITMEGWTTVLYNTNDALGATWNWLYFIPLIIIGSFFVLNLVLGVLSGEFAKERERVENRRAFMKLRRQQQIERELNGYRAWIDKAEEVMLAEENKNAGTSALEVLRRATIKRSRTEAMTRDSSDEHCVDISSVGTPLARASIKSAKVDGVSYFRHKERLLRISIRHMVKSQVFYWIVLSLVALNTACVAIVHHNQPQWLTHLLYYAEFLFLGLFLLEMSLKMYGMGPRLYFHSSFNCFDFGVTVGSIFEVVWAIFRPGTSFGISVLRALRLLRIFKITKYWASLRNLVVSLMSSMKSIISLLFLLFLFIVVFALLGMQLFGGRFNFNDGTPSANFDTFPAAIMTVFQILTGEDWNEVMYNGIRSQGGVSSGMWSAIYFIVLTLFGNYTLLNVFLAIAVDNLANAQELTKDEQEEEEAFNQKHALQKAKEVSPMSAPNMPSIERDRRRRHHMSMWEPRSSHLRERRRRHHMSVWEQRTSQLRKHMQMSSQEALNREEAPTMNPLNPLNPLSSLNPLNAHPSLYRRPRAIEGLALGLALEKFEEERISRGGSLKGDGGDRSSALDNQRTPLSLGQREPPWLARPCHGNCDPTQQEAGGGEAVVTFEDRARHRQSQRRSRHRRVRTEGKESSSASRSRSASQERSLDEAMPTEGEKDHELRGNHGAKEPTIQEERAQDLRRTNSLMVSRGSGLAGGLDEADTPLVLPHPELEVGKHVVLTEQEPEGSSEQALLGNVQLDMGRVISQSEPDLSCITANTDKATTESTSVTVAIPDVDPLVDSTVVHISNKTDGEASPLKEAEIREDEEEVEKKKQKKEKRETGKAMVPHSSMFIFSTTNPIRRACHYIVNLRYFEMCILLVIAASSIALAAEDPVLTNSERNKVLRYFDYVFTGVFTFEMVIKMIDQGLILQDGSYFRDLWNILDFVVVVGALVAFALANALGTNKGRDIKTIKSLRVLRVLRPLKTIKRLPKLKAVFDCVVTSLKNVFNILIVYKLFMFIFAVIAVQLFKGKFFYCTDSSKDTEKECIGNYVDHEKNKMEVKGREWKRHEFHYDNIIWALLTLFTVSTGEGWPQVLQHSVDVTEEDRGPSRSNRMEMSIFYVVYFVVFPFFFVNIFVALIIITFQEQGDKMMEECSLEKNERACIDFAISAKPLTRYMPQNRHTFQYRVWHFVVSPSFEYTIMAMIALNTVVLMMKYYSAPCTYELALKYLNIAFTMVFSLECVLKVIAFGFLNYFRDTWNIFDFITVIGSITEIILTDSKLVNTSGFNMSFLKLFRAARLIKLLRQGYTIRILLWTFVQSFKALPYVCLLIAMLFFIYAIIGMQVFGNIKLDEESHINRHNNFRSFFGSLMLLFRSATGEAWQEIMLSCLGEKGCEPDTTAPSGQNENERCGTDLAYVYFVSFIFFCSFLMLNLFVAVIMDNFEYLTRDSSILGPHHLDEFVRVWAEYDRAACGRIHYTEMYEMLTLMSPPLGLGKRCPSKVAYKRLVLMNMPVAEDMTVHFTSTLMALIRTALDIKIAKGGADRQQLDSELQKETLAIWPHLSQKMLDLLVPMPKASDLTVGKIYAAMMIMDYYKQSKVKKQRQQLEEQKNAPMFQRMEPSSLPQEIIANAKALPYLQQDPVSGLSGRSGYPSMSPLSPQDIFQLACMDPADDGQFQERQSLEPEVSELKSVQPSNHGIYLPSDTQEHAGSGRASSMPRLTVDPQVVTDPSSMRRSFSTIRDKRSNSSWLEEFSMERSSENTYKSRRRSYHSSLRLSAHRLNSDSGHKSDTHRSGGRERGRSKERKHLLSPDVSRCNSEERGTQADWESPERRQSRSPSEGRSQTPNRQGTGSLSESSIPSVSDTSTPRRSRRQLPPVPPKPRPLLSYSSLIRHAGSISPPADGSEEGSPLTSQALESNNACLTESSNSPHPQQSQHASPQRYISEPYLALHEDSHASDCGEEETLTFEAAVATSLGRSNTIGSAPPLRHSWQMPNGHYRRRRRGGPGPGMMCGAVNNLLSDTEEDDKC

N-type calcium current = N-type calcium current (Homo sapiens, UniProt Q00975); details: 300 nM to 500 nM; cited from earlier work
N-type calcium current, sequence (Q00975 whole entry): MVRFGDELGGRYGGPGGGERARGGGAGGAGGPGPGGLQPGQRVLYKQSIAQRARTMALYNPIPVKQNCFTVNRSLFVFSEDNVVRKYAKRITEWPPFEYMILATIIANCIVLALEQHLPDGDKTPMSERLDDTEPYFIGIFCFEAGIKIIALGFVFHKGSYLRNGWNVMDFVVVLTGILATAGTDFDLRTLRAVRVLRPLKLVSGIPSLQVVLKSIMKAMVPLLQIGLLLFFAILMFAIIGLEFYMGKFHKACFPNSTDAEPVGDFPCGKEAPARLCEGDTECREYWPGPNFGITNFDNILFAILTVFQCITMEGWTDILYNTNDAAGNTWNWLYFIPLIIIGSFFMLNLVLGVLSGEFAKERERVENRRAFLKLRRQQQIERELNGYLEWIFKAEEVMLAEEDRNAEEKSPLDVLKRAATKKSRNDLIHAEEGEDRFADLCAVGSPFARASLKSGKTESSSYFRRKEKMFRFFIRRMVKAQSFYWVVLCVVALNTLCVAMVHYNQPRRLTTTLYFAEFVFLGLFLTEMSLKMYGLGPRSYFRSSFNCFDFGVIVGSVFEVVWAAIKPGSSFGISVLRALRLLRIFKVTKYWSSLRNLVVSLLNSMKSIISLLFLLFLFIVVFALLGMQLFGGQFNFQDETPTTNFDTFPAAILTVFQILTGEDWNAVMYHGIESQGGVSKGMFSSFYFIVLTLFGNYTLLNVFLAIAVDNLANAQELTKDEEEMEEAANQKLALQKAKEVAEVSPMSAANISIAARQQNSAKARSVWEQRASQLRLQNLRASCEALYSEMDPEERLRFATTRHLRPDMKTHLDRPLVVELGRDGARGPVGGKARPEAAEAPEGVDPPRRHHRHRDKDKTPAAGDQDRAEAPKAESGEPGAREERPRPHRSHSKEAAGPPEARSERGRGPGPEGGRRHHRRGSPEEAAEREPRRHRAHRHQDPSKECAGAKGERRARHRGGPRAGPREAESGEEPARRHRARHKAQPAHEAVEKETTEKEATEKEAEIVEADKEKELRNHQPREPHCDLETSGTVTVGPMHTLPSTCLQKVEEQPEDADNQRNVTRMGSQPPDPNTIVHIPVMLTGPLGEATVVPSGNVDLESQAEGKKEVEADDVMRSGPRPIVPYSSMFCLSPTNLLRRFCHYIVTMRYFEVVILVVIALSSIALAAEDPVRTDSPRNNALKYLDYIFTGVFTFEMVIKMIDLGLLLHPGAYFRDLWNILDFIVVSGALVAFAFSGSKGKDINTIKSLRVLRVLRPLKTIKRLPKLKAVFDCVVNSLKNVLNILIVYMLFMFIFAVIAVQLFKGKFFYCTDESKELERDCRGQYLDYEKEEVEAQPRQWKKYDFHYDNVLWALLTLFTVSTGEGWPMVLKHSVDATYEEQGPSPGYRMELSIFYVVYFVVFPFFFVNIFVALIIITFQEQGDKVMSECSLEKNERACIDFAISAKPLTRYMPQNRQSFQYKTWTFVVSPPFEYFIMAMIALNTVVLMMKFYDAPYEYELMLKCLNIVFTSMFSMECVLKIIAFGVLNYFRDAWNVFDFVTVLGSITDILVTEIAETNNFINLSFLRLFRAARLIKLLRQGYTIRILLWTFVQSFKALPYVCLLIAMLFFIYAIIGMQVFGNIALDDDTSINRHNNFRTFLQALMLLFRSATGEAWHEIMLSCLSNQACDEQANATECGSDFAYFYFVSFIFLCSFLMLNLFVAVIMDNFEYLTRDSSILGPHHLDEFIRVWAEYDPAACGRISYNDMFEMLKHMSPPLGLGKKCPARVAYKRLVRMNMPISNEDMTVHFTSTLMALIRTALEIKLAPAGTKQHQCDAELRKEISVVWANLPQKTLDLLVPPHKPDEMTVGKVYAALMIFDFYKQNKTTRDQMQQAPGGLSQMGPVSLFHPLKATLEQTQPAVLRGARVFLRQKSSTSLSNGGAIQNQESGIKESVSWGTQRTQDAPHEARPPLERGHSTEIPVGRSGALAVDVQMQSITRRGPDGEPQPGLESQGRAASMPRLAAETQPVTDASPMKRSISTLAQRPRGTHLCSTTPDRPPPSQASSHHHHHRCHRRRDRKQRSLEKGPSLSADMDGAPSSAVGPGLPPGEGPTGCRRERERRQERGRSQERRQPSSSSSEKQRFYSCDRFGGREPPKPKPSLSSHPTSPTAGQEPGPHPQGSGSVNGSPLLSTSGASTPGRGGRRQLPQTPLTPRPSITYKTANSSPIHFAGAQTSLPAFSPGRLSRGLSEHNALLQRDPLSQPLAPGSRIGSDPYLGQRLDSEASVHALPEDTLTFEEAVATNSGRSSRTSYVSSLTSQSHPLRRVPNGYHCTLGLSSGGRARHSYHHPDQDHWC

T-type calcium currents = details: cited from earlier work
[4] = system: R-type current in preparations of the neuronal cell body, retinal ganglion cells and hippocampal pyramidal cells; details: cited from earlier work
L-type calcium currents = details: cited from earlier work
K^+ currents = details: cited from earlier work

| Compound | percent vasospasm (% change in mean basilar artery diameter from baseline), Mean ([1]; Day 8) [%] | percent vasospasm (% change in mean basilar artery diameter from baseline), Mean ([1]; Day 15) [%] | effect on Na+ currents (Na^+ currents) | effect on P/Q-type calcium currents [2] | block of R-type calcium current [3] | N-type calcium current blocked (N-type calcium current) | effect on T-type calcium currents (T-type calcium currents) | effect on R-type current [4] | effect on L-type calcium currents (L-type calcium currents) | effect on K+ currents (K^+ currents) |
| --- | --- | --- | --- | --- | --- | --- | --- | --- | --- | --- |
| COCCOC(=O)C1=C(C)NC(C)=C(C(=O)OC(C)C)C1c1cccc([N+](=O)[O-])c1 (stereo not shown) [Control, nimodipine] | −27.89 | −11.67 |  |  |  |  |  |  |  |  |
| SNX-482 |  |  | no effect | no effect | blocks | 30-50% | no effect | no significant effect | no effect | no effect |
